Assay results from ChEMBL document CHEMBL5331122, “Structure-Activity Relationship Study of Antimicrobial Peptide PE2 Delivered Novel Linear Derivatives with Potential of Eradicating Biofilms and Low Incidence of Drug Resistance” (J Med Chem, 2023).
Converted amounts (≈) assume the structure as drawn. The source made the active and inactive calls. The rule behind the calls is not given here.

Tests used:
Escherichia coli [1] = assay: Antibacterial activity against Escherichia coli ATCC 25922 assessed as bacterial growth inhibition incubated for 18 hrs by broth microdilution method; assay type: functional
Klebsiella pneumoniae [2] = assay: Antibacterial activity against Klebsiella pneumoniae ATCC 700603 assessed as bacterial growth inhibition incubated for 18 hrs by broth microdilution method; assay type: functional
Bacillus subtilis = assay: Antibacterial activity against Bacillus subtilis ATCC 23857 assessed as bacterial growth inhibition incubated for 18 hrs by broth microdilution method; assay type: functional
Enterococcus faecalis = assay: Antibacterial activity against Enterococcus faecalis ATCC 29212 assessed as bacterial growth inhibition incubated for 18 hrs by broth microdilution method; assay type: functional
Erythrocyte = assay: Hemolytic activity in mouse red blood cell assessed as hemolysis incubated for 1 hr; assay type: toxicity, cell-based; conditions: dose 4-256 µg/ml
Staphylococcus aureus [3] = assay: Antimicrobial activity against methicillin-resistant Staphylococcus aureus ATCC 33591 assessed as inhibition of microbial growth incubated for 18 hrs by broth microdilution analysis; assay type: functional, organism-based; conditions: ATCC 33591, 18 h
Staphylococcus aureus [4] = assay: Antibacterial activity against Staphylococcus aureus ATCC 25923 assessed as fold increase in MIC in presence of ZnCl2; assay type: functional
Escherichia coli [5] = assay: Inhibition of biofilm formation in Escherichia coli ATCC 25922 assessed as inhibition of biofilm formation at 1/2 times MIC incubated for 24 hrs by crystal violet staining based analysis; assay type: functional, organism-based
Escherichia coli [6] = assay: Antibiofilm activity against Escherichia coli ATCC 25922 assessed as biofilm eradication at 2 times MIC incubated for 24 hrs; assay type: functional, organism-based
Staphylococcus aureus [7] = assay: Antibiofilm activity against Staphylococcus aureus ATCC 25923 assessed as biofilm eradication at 2 times MIC incubated for 24 hrs; assay type: functional, organism-based
Escherichia coli [8] = assay: Induction of drug resistance against Escherichia coli ATCC 25922 assessed as fold increase in MIC measured upto 15 passages by sequential passaging method; assay type: functional
Escherichia coli [9] = assay: Antibacterial activity against gentamycin-resistant Escherichia coli ATCC 25922 assessed as reduction in bacterial growth incubated for 18 hrs by broth microdilution method; assay type: functional
Staphylococcus aureus [10] = assay: Antibacterial activity against gentamycin-resistant Staphylococcus aureus ATCC 25923 assessed as reduction in bacterial growth incubated for 18 hrs by broth microdilution method; assay type: functional
Escherichia coli [11] = assay: Antibacterial activity against rifampicin-resistant Escherichia coli ATCC 25922 assessed as reduction in bacterial growth incubated for 18 hrs by broth microdilution method; assay type: functional
Staphylococcus aureus [12] = assay: Antibacterial activity against rifampicin-resistant Staphylococcus aureus ATCC 25923 assessed as reduction in bacterial growth incubated for 18 hrs by broth microdilution method; assay type: functional
Staphylococcus aureus [13] = assay: Additive antibacterial activity against gentamycin-resistant Staphylococcus aureus ATCC 25923 incubated for 18 hrs in presence of gentamycin by checkerboard assay; assay type: functional, organism-based
Escherichia coli [14] = assay: Bactericidal activity against Escherichia coli ATCC 25922 assessed as inhibition of bacterial growth incubated upto 360 mins by time-kill assay; assay type: functional, organism-based
Escherichia coli [15] = assay: Bactericidal activity against Escherichia coli ATCC 25922 assessed as inhibition of bacterial growth at 0.5 to 2 times MIC by time-kill assay; assay type: functional, organism-based; conditions: time <= 360.0 min, TDE = time-dependent effect
Escherichia coli [16] = assay: Bactericidal activity against Escherichia coli ATCC 25922 assessed as inhibition of bacterial growth at 1 times MIC measured at 180 mins by time-kill assay; assay type: functional, organism-based
Staphylococcus aureus [17] = assay: Bactericidal activity against Staphylococcus aureus ATCC 25923 assessed as inhibition of bacterial growth at 0.5 to 2 times MIC by time-kill assay; assay type: functional, organism-based; conditions: time <= 360.0 min, TDE = time-dependent effect
Staphylococcus aureus [18] = assay: Bactericidal activity against Staphylococcus aureus ATCC 25923 assessed as inhibition of bacterial growth incubated upto 360 mins by time-kill assay; assay type: functional, organism-based
Escherichia coli [19] = assay: Bactericidal activity against Escherichia coli ATCC 25922 assessed as inhibition of bacterial growth at 0.5 to 2 times MIC measured at 120 mins by time-kill assay; assay type: functional, organism-based
Escherichia coli [20] = assay: Antimicrobial activity against Escherichia coli ATCC 25922 assessed as reduction in microbial growth measured for 18 hrs in presence of 64 microg/ml LPS; assay type: functional, organism-based
Cell membrane [21] = assay: Induction of outer membrane permeabilization in Escherichia coli ATCC 25922 assessed as increase in fluorescence intensity at 1 to 4 times MIC measured for 12 hrs by NPN uptake assay; assay type: subcellular
Cell membrane [22] = assay: Induction of inner membrane permeabilization in Escherichia coli ML-35 ATCC 43837 assessed as increase in fluorescence intensity at 1 to 4 times MIC incubated upto 150 mins by ONPG staining based analysis; assay type: subcellular
Cell membrane [23] = assay: Induction of cell membrane damage in Escherichia coli ATCC 25922 at 2 times MIC after 0.5 to 2 hrs by propidium iodide staining based flow cytometer assay; assay type: subcellular; conditions: time 0.5-2 hrs
Staphylococcus aureus [24] = assay: Induction of membrane morphological changes in Staphylococcus aureus ATCC 25923 at 4 times MIC measured at 0.5 to 2 hrs by SEM analysis; assay type: functional, organism-based; conditions: time 0.5-2 hrs
Staphylococcus aureus [25] = assay: Induction of membrane morphological changes in Staphylococcus aureus ATCC 25923 assessed as appearance of broken bacterial cells at 4 times MIC measured at 0.5 to 2 hrs by SEM analysis; assay type: functional, organism-based; conditions: time 0.5-2 hrs
Klebsiella pneumoniae [26] = assay: Antibacterial activity against Klebsiella pneumoniae ATCC 700603 infected in BALB/c mouse pneumonia model at 5 to 10 mg/kg, ip measured at 4 to 12 hrs; assay type: functional, organism-based; conditions: dose 5-10 mg/kg, time 4-12 hrs
Klebsiella pneumoniae [27] = assay: Antibacterial activity against Klebsiella pneumoniae ATCC 700603 infected in BALB/c mouse pneumonia model assessed as reduction in lung bacterial load at 5 to 10 mg/kg, ip measured at 4 to 12 hrs; assay type: functional, organism-based; conditions: dose 5-10 mg/kg, time 4-12 hrs
Klebsiella pneumoniae [28] = assay: Antibacterial activity against Klebsiella pneumoniae ATCC 700603 infected in BALB/c mouse pneumonia model assessed as reduction in infiltration of inflammatory cells at 5 to 10 mg/kg, ip measured at 4 to 12 hrs by hematoxylin and eosin staining based analysis; assay type: functional, organism-based; conditions: dose 5-10 mg/kg, time 4-12 hrs
Klebsiella pneumoniae [29] = assay: Antibacterial activity against Klebsiella pneumoniae ATCC 700603 infected in BALB/c mouse pneumonia model assessed as alveolar expansion at 5 to 10 mg/kg, ip measured at 4 to 12 hrs by hematoxylin and eosin staining based analysis; assay type: functional, organism-based; conditions: dose 5-10 mg/kg, time 4-12 hrs
[30] = Acute toxicity in Kunming mouse assessed as survival rate at 20 mg/kg, ip measured for 7 days; assay type: organism-based; conditions: in vivo, 168 h, time 7 day
[31] = Acute toxicity in ip dosed Kunming mouse assessed as lethal dose measured upto 7 days; assay type: organism-based; conditions: in vivo, time < 7 day; for LD50 at 168 h: Kunming
Escherichia coli [32] = assay: Additive antibacterial activity against Escherichia coli ATCC 25922 assessed as bacterial growth inhibition incubated for 18 hrs in presence of gentamycin by checkerboard assay; assay type: functional, organism-based
Escherichia coli [33] = assay: Additive antibacterial activity against Escherichia coli ATCC 25922 assessed as bacterial growth inhibition incubated for 18 hrs in presence of rifampicin by checkerboard assay; assay type: functional, organism-based
Staphylococcus aureus [34] = assay: Additive antibacterial activity against Staphylococcus aureus ATCC 25923 assessed as bacterial growth inhibition incubated for 18 hrs in presence of gentamycin by checkerboard assay; assay type: functional, organism-based
Staphylococcus aureus [35] = assay: Additive antibacterial activity against Staphylococcus aureus ATCC 25923 assessed as bacterial growth inhibition incubated for 18 hrs in presence of rifampicin by checkerboard assay; assay type: functional, organism-based
Staphylococcus aureus [36] = assay: Bactericidal activity against Staphylococcus aureus ATCC 25923 assessed as inhibition of bacterial growth at 0.5 to 2 times MIC measured at 120 mins by time-kill assay; assay type: functional, organism-based

| Structure (SMILES) | MIC (Escherichia coli [1]) [µg/mL] | MIC (Klebsiella pneumoniae [2]) [µg/mL] | MIC (Bacillus subtilis) [µg/mL] | MIC (Enterococcus faecalis) [µg/mL] | HC10 (Erythrocyte) [µg/mL] | EC50 (Staphylococcus aureus [3]) [µg/mL] | fold change (FC) (Staphylococcus aureus [4]) | inhibition (Escherichia coli [5]) | Activity (Escherichia coli [6]) | Activity (Staphylococcus aureus [7]) | fold change (FC) (Escherichia coli [8]) | Activity (Escherichia coli [14]) | Activity (Escherichia coli [15]) | Activity (Staphylococcus aureus [17]) | Activity (Staphylococcus aureus [18]) | Activity (Cell membrane [21]) | Activity (Cell membrane [22]) | Activity (Cell membrane [23]) | Activity (Staphylococcus aureus [24]) | Activity (Staphylococcus aureus [25]) | further results |
| --- | --- | --- | --- | --- | --- | --- | --- | --- | --- | --- | --- | --- | --- | --- | --- | --- | --- | --- | --- | --- | --- |
| CCCCCCC(=O)N[C@@H](CCN)C(=O)N[C@H](C(=O)N[C@@H](CCN)C(=O)N[C@H](Cc1ccccc1)C(=O)N[C@@H](CC(C)C)C(=O)N[C@@H](CCN)C(=O)N[C@@H](C(=O)N[C@@H](CC(C)C)C(=O)N[C@@H](Cc1ccc(O)cc1)C(N)=O)C(C)C)[C@@H](C)CC | 8 (≈ 6.79 µM) | 8 (≈ 6.79 µM) | 2 (≈ 1.7 µM) | 64 (≈ 54.3 µM) | 512 | 4.65 | <=2 | Active | Active | Active | 64 | Dose-Dependent Effect | Tde | Tde | Dose-Dependent Effect | Active | Active | Active | Active | Active | MIC (Escherichia coli [9]): 4 µg/mL (≈ 3.39 µM); MIC (Staphylococcus aureus [10]): 8 µg/mL (≈ 6.79 µM); MIC (Escherichia coli [11]): < 8 µg/mL; MIC (Staphylococcus aureus [12]): < 8 µg/mL; Activity (Staphylococcus aureus [13]): Active; Activity (Escherichia coli [16]): Active; Activity (Escherichia coli [19]): Active; Activity (Escherichia coli [20]): Active; Activity (Klebsiella pneumoniae [26]): Active; Activity (Klebsiella pneumoniae [27]): Active; Activity (Klebsiella pneumoniae [28]): Active; Activity (Klebsiella pneumoniae [29]): Active; Activity [30]: Non-Toxic; LD50 at 168 h [31]: 32 mg/kg |
| CC[C@H](C)[C@@H]1NC(=O)[C@H](CCN)NC(=O)C[C@@H](C(C)C)OC(=O)[C@H]([C@@H](C)O)NC(=O)[C@H](CC(C)C)NC(=O)[C@@H](C(C)C)NC(=O)[C@H](CCN)NC(=O)[C@H](CC(C)C)NC(=O)[C@@H](Cc2ccccc2)NC(=O)[C@H](CCN)NC1=O | 8 (≈ 7.26 µM) | 4 (≈ 3.63 µM) | 4 (≈ 3.63 µM) | 16 (≈ 14.5 µM) | – | – | <=2 | Active | Active | Active | 64 | Dose-Dependent Effect | Tde | Tde | Dose-Dependent Effect | Active | Active | Active | Active | Active | Activity (Escherichia coli [32]): Active; Activity (Escherichia coli [33]): Active; Activity (Staphylococcus aureus [34]): Active; Activity (Staphylococcus aureus [35]): Active; Activity (Staphylococcus aureus [13]): Active; Activity (Staphylococcus aureus [36]): Active; Activity (Escherichia coli [20]): Active |
| CCCCCCCC(=O)N[C@@H](CCN)C(=O)N[C@H](C(=O)N[C@@H](CCN)C(=O)N[C@H](Cc1ccccc1)C(=O)N[C@@H](CC(C)C)C(=O)N[C@@H](CCN)C(=O)N[C@@H](C(=O)N[C@@H](CC(C)C)C(=O)N[C@@H](Cc1ccc(O)cc1)C(N)=O)C(C)C)[C@@H](C)CC | 4 (≈ 3.35 µM) | 8 (≈ 6.71 µM) | 2 (≈ 1.68 µM) | 16 (≈ 13.4 µM) | 128 | 2.99 | <=2 | inactive | Active | Active | 64 | Dose-Dependent Effect | Tde | Tde | Dose-Dependent Effect | Active | Active | Active | Active | Active | MIC (Escherichia coli [9]): 2 µg/mL (≈ 1.68 µM); MIC (Staphylococcus aureus [10]): 8 µg/mL (≈ 6.71 µM); MIC (Escherichia coli [11]): < 8 µg/mL; MIC (Staphylococcus aureus [12]): < 8 µg/mL; Activity (Escherichia coli [32]): Active; Activity (Escherichia coli [33]): Active; Activity (Staphylococcus aureus [34]): Active; Activity (Staphylococcus aureus [35]): Active; Activity (Escherichia coli [16]): Active; Activity (Escherichia coli [19]): Active; Activity (Staphylococcus aureus [36]): Active; Activity (Klebsiella pneumoniae [26]): Active; Activity (Klebsiella pneumoniae [27]): Active; Activity (Klebsiella pneumoniae [28]): Active; Activity (Klebsiella pneumoniae [29]): Active; Activity [30]: Non-Toxic; LD50 at 168 h [31]: 33.6 mg/kg; LD ([31]; ip, 168 h): 80 mg/kg |
